Source: patent US20250236578A1, “NOVEL CANNABINOID DERIVATIVES” (CANNASOUL ANALYTICS LTD., priority 2021, published 2025)

What was measured:
[1] = test system: T24 cell line; test: PI-positive cell count, bladder cancer cells (IncuCyte); format: cell-based, Human; settings: for Number of cells (PI-positive): 24 h post-treatment
Description: (§1) The effect of the compounds according to certain embodiments of the present invention as anti-cancer agents was assessed. Human cancer cells of prostate (PC3 cell line), bladder (T24 cell line), or breast (MDA-MB-231 cell line) cancers were thawed and cultured in suitable media at a final concentration of 3×10^5 cells/mL and tested in triplicates. Following 24 hours of incubation, cells were treated with the tested compounds at 2 μg/ml and 4 μg/ml concentrations or controls (cells were grown in starvation medium and treated with Mitomycin C). Mitomycin C is a potent antineoplastic agent that creates DNA cross-linkage resulting in cell arrest and consequently cell death. It is used to treat various types of cancers such as bladder and breast cancers. In in-vitro models, it acts as a proliferation inhibitor as it induces G0-G1 cell growth arrest. The number of cells in each sample was quantified immediately upon treatment (time-point 0) and every 24 hours until full cell confluency was reached. 24 hours post-treatment, PI (1 μg/ml) was added to the treated cells for 1 hour. Using cell-by-cell analysis (IncuCyte™ cell imager), the PI-positive cells were counted and compared to the relative number of cells in the non-treated (NT) wells.

[2] = test system: PC3 cell line; test: PI-positive cell count, prostate cancer cells (IncuCyte); format: cell-based, Human; settings: for Number of cells (PI-positive): 24 h post-treatment
Description: as §1

[3] = test system: MDA-MB-231 cell line; test: PI-positive cell count, breast cancer cells (IncuCyte); format: cell-based, Human; settings: for Number of cells (PI-positive): 24 h post-treatment
Description: as §1

[4] = test system: Human adrenal cells; test: Steroidogenesis: cortisol secretion by Forskolin-stimulated human adrenal cells (ELISA); format: cell-based; settings: 24 h, Forskolin 10 μM
Description: The effect of the compounds according to certain embodiments of the present invention as inhibitors of steroidogenesis was assessed. Human adrenal cells were thawed and cultured in a suitable medium at a final concentration of 5×10^5 cells per mL (performed in triplicates). Following 24 hours of incubation, cells were treated with 10 μM Forskolin. After 48 hours of incubation, cells were treated with controls (1 μM Prochloraz, and 0.2 μg/mL or 1 μg/mL CBD) and compounds according to embodiments of the present invention for 24 hours. Next, supernatants were collected, and the secretion levels of cortisol were measured by ELISA (R&D systems). Optical density was determined by ‘CLARIOStar-plus’® plate-reader. Cortisol concentration (ng/ml) was calculated using a standard curve.

[5] = Breast cancer MDA-MB-231, 2 μg/ml
[6] = Breast cancer MDA-MB-231, 4 μg/ml

SMILES: C=C(C)[C@@H]1CCC(C)=C[C@H]1c1c(O)cc(CCCCC)cc1O [CBD, cannabidiol, reference compound]
- % NT (PI-positive cells relative to non-treated) ([1]; Bladder cancer T24, 2 μg/ml): 156%
- Number of cells (PI-positive) ([1]; Bladder cancer T24, 2 μg/ml): 171.47
- % NT (PI-positive cells relative to non-treated) ([1]; Bladder cancer T24, 4 μg/ml): 1794%
- Number of cells (PI-positive) ([1]; Bladder cancer T24, 4 μg/ml): 1969.93
- % NT (PI-positive cells relative to non-treated) ([2]; Prostate cancer PC3, 2 μg/ml): 90%
- Number of cells (PI-positive) ([2]; Prostate cancer PC3, 2 μg/ml): 22.53
- % NT (PI-positive cells relative to non-treated) ([2]; Prostate cancer PC3, 4 μg/ml): 320%
- Number of cells (PI-positive) ([2]; Prostate cancer PC3, 4 μg/ml): 80.13
- % NT (PI-positive cells relative to non-treated) [3, 5]: 175%
- Number of cells (PI-positive) [3, 5]: 89.40
- % NT (PI-positive cells relative to non-treated) [3, 6]: 1325%
- Number of cells (PI-positive) [3, 6]: 675.73
- Cortisol ([4]; inhibitor 0.2 μg/mL): 101 ng/mL
- Cortisol % of Forskolin ([4]; inhibitor 0.2 μg/mL): 95%
- Cortisol ([4]; inhibitor 1 μg/mL): 62 ng/mL
- Cortisol % of Forskolin ([4]; inhibitor 1 μg/mL): 58%

SMILES: CCCCCCc1cc(O)c(C2C=C(C)CCC2C(C)(C)O)c(O)c1 (stereo not drawn) [Formula 1]
- % NT (PI-positive cells relative to non-treated) ([2]; Prostate cancer PC3, 2 μg/ml): 216%
- Number of cells (PI-positive) ([2]; Prostate cancer PC3, 2 μg/ml): 54.13
- % NT (PI-positive cells relative to non-treated) ([2]; Prostate cancer PC3, 4 μg/ml): 260%
- Number of cells (PI-positive) ([2]; Prostate cancer PC3, 4 μg/ml): 65.27
- Cortisol ([4]; inhibitor 0.2 μg/mL): 37 ng/mL
- Cortisol % of Forskolin ([4]; inhibitor 0.2 μg/mL): 35%
- Cortisol ([4]; inhibitor 1 μg/mL): 24 ng/mL
- Cortisol % of Forskolin ([4]; inhibitor 1 μg/mL): 22%

SMILES: CCCCCc1cc(O)c(C2CC(C)CCC2C(C)(C)O)c(O)c1 (stereo not drawn) [Formula 2]
- % NT (PI-positive cells relative to non-treated) ([2]; Prostate cancer PC3, 2 μg/ml): 307%
- Number of cells (PI-positive) ([2]; Prostate cancer PC3, 2 μg/ml): 76.93
- % NT (PI-positive cells relative to non-treated) ([2]; Prostate cancer PC3, 4 μg/ml): 363%
- Number of cells (PI-positive) ([2]; Prostate cancer PC3, 4 μg/ml): 90.93
- Cortisol ([4]; inhibitor 0.2 μg/mL): 100 ng/mL
- Cortisol % of Forskolin ([4]; inhibitor 0.2 μg/mL): 94%
- Cortisol ([4]; inhibitor 1 μg/mL): 77 ng/mL
- Cortisol % of Forskolin ([4]; inhibitor 1 μg/mL): 72%

SMILES: CCCCCCCc1cc(O)c(C2C=C(C)CCC2C(C)(C)O)c(O)c1 (stereo not drawn) [Formula 4]
- % NT (PI-positive cells relative to non-treated) ([1]; Bladder cancer T24, 2 μg/ml): 108%
- Number of cells (PI-positive) ([1]; Bladder cancer T24, 2 μg/ml): 118.20
- % NT (PI-positive cells relative to non-treated) ([1]; Bladder cancer T24, 4 μg/ml): 703%
- Number of cells (PI-positive) ([1]; Bladder cancer T24, 4 μg/ml): 771.60
- % NT (PI-positive cells relative to non-treated) ([2]; Prostate cancer PC3, 2 μg/ml): 228%
- Number of cells (PI-positive) ([2]; Prostate cancer PC3, 2 μg/ml): 57.27
- % NT (PI-positive cells relative to non-treated) ([2]; Prostate cancer PC3, 4 μg/ml): 2810%
- Number of cells (PI-positive) ([2]; Prostate cancer PC3, 4 μg/ml): 704.33
- % NT (PI-positive cells relative to non-treated) [3, 5]: 120%
- Number of cells (PI-positive) [3, 5]: 61.07
- % NT (PI-positive cells relative to non-treated) [3, 6]: 1417%
- Number of cells (PI-positive) [3, 6]: 722.47
- Cortisol ([4]; inhibitor 0.2 μg/mL): 38 ng/mL
- Cortisol % of Forskolin ([4]; inhibitor 0.2 μg/mL): 36%
- Cortisol ([4]; inhibitor 1 μg/mL): 35 ng/mL
- Cortisol % of Forskolin ([4]; inhibitor 1 μg/mL): 32%

SMILES: CCCCCCC(C)(C)c1cc(O)c(C2C=C(C)CCC2C(C)(C)O)c(O)c1 (stereo not drawn) [Formula 7]
- % NT (PI-positive cells relative to non-treated) ([1]; Bladder cancer T24, 2 μg/ml): 429%
- Number of cells (PI-positive) ([1]; Bladder cancer T24, 2 μg/ml): 470.67
- % NT (PI-positive cells relative to non-treated) ([1]; Bladder cancer T24, 4 μg/ml): 1156%
- Number of cells (PI-positive) ([1]; Bladder cancer T24, 4 μg/ml): 1269.33
- % NT (PI-positive cells relative to non-treated) ([2]; Prostate cancer PC3, 2 μg/ml): 326%
- Number of cells (PI-positive) ([2]; Prostate cancer PC3, 2 μg/ml): 81.80
- % NT (PI-positive cells relative to non-treated) ([2]; Prostate cancer PC3, 4 μg/ml): 4139%
- Number of cells (PI-positive) ([2]; Prostate cancer PC3, 4 μg/ml): 1037.53
- % NT (PI-positive cells relative to non-treated) [3, 5]: 277%
- Number of cells (PI-positive) [3, 5]: 141.47
- % NT (PI-positive cells relative to non-treated) [3, 6]: 2197%
- Number of cells (PI-positive) [3, 6]: 1120.53
- Cortisol ([4]; inhibitor 0.2 μg/mL): 39 ng/mL
- Cortisol % of Forskolin ([4]; inhibitor 0.2 μg/mL): 37%
- Cortisol ([4]; inhibitor 1 μg/mL): 47 ng/mL
- Cortisol % of Forskolin ([4]; inhibitor 1 μg/mL): 44%

SMILES: CCCCCc1cc(O)c(C2C=C(C)CCC2C(C)(C)O)c(O)c1C(=O)OC (stereo not drawn) [Formula 12]
- % NT (PI-positive cells relative to non-treated) ([2]; Prostate cancer PC3, 2 μg/ml): 215%
- Number of cells (PI-positive) ([2]; Prostate cancer PC3, 2 μg/ml): 53.93
- % NT (PI-positive cells relative to non-treated) ([2]; Prostate cancer PC3, 4 μg/ml): 390%
- Number of cells (PI-positive) ([2]; Prostate cancer PC3, 4 μg/ml): 97.80
- Cortisol ([4]; inhibitor 0.2 μg/mL): 43 ng/mL
- Cortisol % of Forskolin ([4]; inhibitor 0.2 μg/mL): 41%
- Cortisol ([4]; inhibitor 1 μg/mL): 45 ng/mL
- Cortisol % of Forskolin ([4]; inhibitor 1 μg/mL): 42%

SMILES: CCCCCc1cc(O)c(C2C=C(C)CCC2C(C)(C)O)c(O)c1C(=O)NCCCN1CCOCC1 (stereo not drawn) [Formula 14]
- Cortisol ([4]; inhibitor 0.2 μg/mL): 41 ng/mL
- Cortisol % of Forskolin ([4]; inhibitor 0.2 μg/mL): 39%
- Cortisol ([4]; inhibitor 1 μg/mL): 45 ng/mL
- Cortisol % of Forskolin ([4]; inhibitor 1 μg/mL): 42%

SMILES: CCCN(CCOc1c(Cl)cc(Cl)cc1Cl)C(=O)n1ccnc1 [Prochloraz, reference compound]
- Cortisol ([4]; inhibitor 1 μg/mL): 23 ng/mL
- Cortisol % of Forskolin ([4]; inhibitor 1 μg/mL): 22%
